Reference: patent publication US20030100567A1, “Tyrosine kinase inhibitors” (priority 2001, published 2003)

What was measured:
Settings in all cases: in vivo
Pharmacokinetics in dog = experiment: Pharmacokinetics in dog
Pharmacokinetics in rat = experiment: Pharmacokinetics in rat
[1] = Pharmacokinetics in rhesus monkey

Work on `CN(C)C(=O)N1CCN(Cc2ccnc(Nc3ncc(C#N)s3)c2)CC1` yielded a bioavailability (Pharmacokinetics in dog) of 49%, a clearance (Pharmacokinetics in dog) of 3.6 mL/min/kg and a half-life (Pharmacokinetics in dog) of 204 min. For the same compound, the clearance (Pharmacokinetics in rat) was 15.5 mL/min/kg and the half-life (Pharmacokinetics in rat) was 96 min.

With `CS(=O)(=O)C1CCN(Cc2ccnc(Nc3ncc(C#N)s3)c2)CC1` [Compound 5-6, 2-[(4-{[4-(methylsulfonyl)piperidin-1-yl]methyl}pyridin-2-yl)amino]-1,3-thiazole-5-carbonitrile] the bioavailability (Pharmacokinetics in dog) was 95%, the clearance (Pharmacokinetics in dog) was 1.8 mL/min/kg and the half-life (Pharmacokinetics in dog) was 378 min. It also gave a bioavailability (Pharmacokinetics in rat) of 70%, a clearance (Pharmacokinetics in rat) of 16.3 mL/min/kg and a half-life (Pharmacokinetics in rat) of 66 min. For the same compound, the bioavailability [1] was 67%, the clearance [1] was 3 mL/min/kg and the half-life [1] was 330 min.

`N#Cc1cnc(Nc2cc(CN3CCN(C(N)=O)CC3)ccn2)s1` showed a clearance (Pharmacokinetics in dog) of 2.6 mL/min/kg and a half-life (Pharmacokinetics in dog) of 126 min.

Work on `CC(=O)N1CCN(Cc2ccnc(Nc3ncc(C#N)s3)c2C)CC1` yielded a clearance (Pharmacokinetics in dog) of 14 mL/min/kg and a half-life (Pharmacokinetics in dog) of 84 min.

Compound `CNC(=O)N1CCN(Cc2ccnc(Nc3ncc(C#N)s3)c2)CC1` [Compound 4-4, 4-[2-(5-cyano-thiazol-2-ylamino)-pyridin-4-ylmethyl]-piperazine-1-carboxylic acid methylamide] has a bioavailability (Pharmacokinetics in dog) of 99%, a clearance (Pharmacokinetics in dog) of 0.5 mL/min/kg and a half-life (Pharmacokinetics in dog) of 1040 min. For the same compound, the bioavailability (Pharmacokinetics in rat) was 49%, the clearance (Pharmacokinetics in rat) was 10.7 mL/min/kg and the half-life (Pharmacokinetics in rat) was 114 min. The bioavailability [1] was 43%, the clearance [1] was 13.4 mL/min/kg and the half-life [1] was 102 min.
